Measured values from PMC4549042, “Targeting procaspase-3 with WF-208, a novel PAC-1 derivative, causes selective cancer cell apoptosis” (Journal of Cellular and Molecular Medicine, 2015).
pEC50, pIC50: −log10 of the molar value. Residues, ends and D or L forms follow the SMILES beside them. *: point of attachment. Cbz = O=C(OCc1ccccc1)*; CH2F = FC*

The compounds below were run on HL-60 and U-937 cell lines (assay: Western blot of Bcl-2 family and IAP proteins in HL-60 and U-937). Details: 5 μM MG132 co-treated with 10 μM WF-208, 24 hrs.
Format: cell-based, human
Experimental: Approximately 1 × 10^7 HL-60 cells were gathered after pre-treatment with PAC-1 and WF-208 as previously described. The tumour tissue protein was purified according to the reported methods. Western blotting was performed as previously described. All antibodies were purchased from Cell Signaling Technology. In brief, an equal amount of total protein extracts from cultured cells or tissues were fractionated by 10–15% SDS-PAGE and electrically transferred onto polyvinylidene difluoride (PVDF) membranes. Different primary antibodies and corresponding horseradish peroxidase-conjugated secondary antibodies were used to detect the proteins. The bound secondary antibodies on the PVDF membrane were reacted with ECL™ Western Blotting Reagents detection reagents (Thermo Fisher, Rockford, USA) and exposed to X-ray films. Results were normalized to the internal control β-actin.

Compound | effect on down-regulation of XIAP and survivin induced by WF-208
CC(C)C[C@@H](C=O)NC(=O)[C@H](CC(C)C)NC(=O)[C@H](CC(C)C)NC(=O)OCc1ccccc1 [MG132, reference compound] (Cbz-Leu-Leu-Leu-aldehyde) | blocked the down-regulation

What follows are compounds tested on mouse primary cortical cell (assay: Cytotoxicity in mouse primary cortical neuron cells). Details: neurotoxicity.
Format: cell-based
Experimental: (§1) The cell viability effects of the tested compounds were determined by MTT assay. Cells (1 × 10^4 cells/100 μl/well) were seeded into 96-well culture plates. After overnight incubation, cells were treated with various concentrations of compounds for 72 hrs. Subsequently, 10 μl MTT solution (2.5 mg/ml in PBS) was added to each well, than the cells were incubated for an additional 3–4 hrs at 37°C. After centrifugation (200 × g, 10 min.), the medium with MTT was aspirated, followed by the addition of 100 μl DMSO. The optical density of each well was measured at 570 nm with a Biotek Synergy TM HT Reader.

Compound | pIC50
C=CCc1cccc(/C=N/NC(=O)CN2CCN(Cc3ccccc3)CC2)c1O [PAC-1] | 4.30

What follows are compounds tested on PC-3 xenograft (assay: Human prostatic carcinoma PC-3 xenograft mouse model). Details: 2.5 mg/kg i.v., 15 days.
Format: in vivo
Experimental: To determine the anti-tumour activity of WF-208 in vivo, viable human prostate cancer PC-3 cells (5 × 10^6/100 μl PBS per mouse) were subcutaneously (s.c.) injected into the right flank of 7- to 8-week old male SCID mice. When the average tumour volume reached 100 mm^3, mice were randomly divided into various treatment and control group (eight mice per group). Tumour size was measured once every 2 days with a calliper (calculated volume = shortest diameter^2 × longest diameter/2). Body weight, diet consumption and tumour size were recorded once every 2 days. After 2 weeks, mice were killed and tumours were excised and stored at −80°C until further analysis.

Compound | influence on body weight | tumour volume compared with control group
C=CCc1cccc(/C=N/NC(=O)CN2CCN(Cc3ccccc3)CC2)c1O [PAC-1] | minimal influence | no significantly difference

The compounds below were run on HL-60 and U-937 cell lines (assay: Caspase inhibitors on WF-208-induced early apoptosis (Annexin V/PI)). Details: 50 μM inhibitor, 10 μM WF-208, 24 hrs.
Format: cell-based, human
Experimental: Compounds were incubated with HL-60 and U-937 cells for 24 hrs. The cells were harvested and double-stained with FITC-Annexin V Apoptosis Detection Kit (BD Biosciences, San Jase, USA). Cells that positively stained with Annexin V and negatively stained with PI were considered to be early apoptotic.

Compound | effect of inhibitor on WF-208-induced early apoptosis
COC(=O)CC[C@H](NC(=O)[C@H](CC(C)C)NC(=O)OCc1ccccc1)C(=O)N[C@@H](Cc1cnc[nH]1)C(=O)N[C@@H](CC(=O)OC)C(=O)CF [Z-LEHD-FMK] (Cbz-LE(OMe)HD(OMe)-CH2F) | partly inhibit
COC(=O)C[C@H](NC(=O)[C@H](C)NC(=O)[C@@H](NC(=O)OCc1ccccc1)C(C)C)C(=O)CF [Z-VAD-FMK] (Cbz-Val-Ala-Asp(OMe)-CH2F) | abolish
COC(=O)CC[C@H](NC(=O)[C@H](CC(=O)OC)NC(=O)OCc1ccccc1)C(=O)N[C@H](C(=O)N[C@@H](CC(=O)OC)C(=O)CF)C(C)C [Z-DEVD-FMK] | abolish

Each compound was assayed against T1, rh-procaspase-3 (Homo sapiens, UniProt P42574) (assay: Caspase-3 activation assay (procaspase-3 activation in vitro)). Details: rh-procaspase-3, concentrations 0.08–100 μM.
T1 construct: purchased R&D System (Minneapolis, USA)
T1 sequence (P42574 1-277): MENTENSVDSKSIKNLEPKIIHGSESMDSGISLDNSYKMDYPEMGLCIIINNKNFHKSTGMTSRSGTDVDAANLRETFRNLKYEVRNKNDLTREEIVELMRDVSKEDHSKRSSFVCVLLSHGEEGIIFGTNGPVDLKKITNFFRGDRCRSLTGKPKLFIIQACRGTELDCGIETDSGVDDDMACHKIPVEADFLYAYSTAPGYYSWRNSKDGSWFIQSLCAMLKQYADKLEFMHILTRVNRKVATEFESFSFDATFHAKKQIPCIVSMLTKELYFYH
Format: biochemical
Experimental: Procaspase-3 protein was purchased from R&D System (Minneapolis, USA). Procaspase-3 protein was added into 384-well plates. Tested compounds (or DMSO as control) were then added to achieve a final concentration of procaspase-3 of 50 ng/ml. Each plate was incubated for 2 hrs at 37°C. Then caspase-3 peptide substrate (acetyl Asp-Glu-Val-Asp-[…] (Ac-DEVD-pNa), 200 μM) were added. The absorbance of each well was measured at 405 nm in kinetic mode for 10 min [13].

Compound | pEC50
C=CCc1cccc(/C=N/NC(=O)CN2CCN(Cc3ccccc3)CC2)c1O [PAC-1] | 5.22

What follows are compounds tested on HL-60 cell line (assay: MTT cell viability assay, HL-60). Details: Homo sapiens, 72 hrs.
Format: cell-based
Experimental: as §1

Compound | IC50 [µM]
O=C(CN1CCN(Cc2nc(-c3ccc(COc4ccc(F)cc4)cc3)no2)CC1)N/N=C/c1ccc(OCc2cccc(C(F)(F)F)c2)cc1O [B3] | 0.98
C=CCc1cccc(/C=N/NC(=O)CN2CCN(Cc3ccccc3)CC2)c1O [PAC-1] | 2.1
O=C(CN1CCN(Cc2nc(-c3ccc(COc4ccc(F)cc4)cc3)no2)CC1)N/N=C/c1ccc(OCc2ccc(Cl)cc2Cl)cc1O [B2] | 1.02
C=CCc1cccc(/C=N/NC(=O)CN2CCN(Cc3nc(-c4ccc(COc5ccc(Cl)cc5)cc4)no3)CC2)c1O [A1] | 0.25
O=C(CN1CCN(Cc2nc(-c3ccc(COc4ccc(F)c(F)c4)cc3)no2)CC1)N/N=C/c1ccc(OCc2ccc(Cl)cc2Cl)cc1O [B9] | 0.41
O=C(CN1CCN(Cc2nc(-c3ccc(COc4ccccc4C(F)(F)F)cc3)no2)CC1)N/N=C/c1ccc(OCc2csc(Cc3ccc4c(c3)OCO4)n2)cc1O [C1] | 1.08
CC(C)(C)c1ccc(COc2ccc(/C=N/NC(=O)CN3CCN(Cc4nc(-c5ccc(COc6ccc(Cl)cc6)cc5)no4)CC3)c(O)c2)cc1 [B4] | 0.67
CC(C)(C)c1ccc(COc2ccc(/C=N/NC(=O)CN3CCN(Cc4nc(-c5ccc(COc6ccccc6C(F)(F)F)cc5)no4)CC3)c(O)c2)cc1 [B10] | 0.4
C=CCc1cccc(/C=N/NC(=O)CN2CCN(Cc3nc(-c4ccc(COc5ccccc5C(F)(F)F)cc4)no3)CC2)c1O [A4] | 0.35
C=CCc1cccc(/C=N/NC(=O)CN2CCN(Cc3nc(-c4ccc(COc5ccc(F)cc5)cc4)no3)CC2)c1O [A2] | 0.39
O=C(CN1CCN(Cc2nc(-c3ccc(COc4ccc(Cl)cc4)cc3)no2)CC1)N/N=C/c1ccc(OCc2ccc(Cl)cc2Cl)cc1O [B5] | 1.07
O=C(CN1CCN(Cc2nc(-c3ccc(COc4ccc(F)c(F)c4)cc3)no2)CC1)N/N=C/c1ccc(OCc2ccc(Cl)cc2)cc1O [B8] | 0.3
CC(C)(C)c1ccc(COc2ccc(/C=N/NC(=O)CN3CCN(Cc4nc(-c5ccc(COc6ccc(F)cc6)cc5)no4)CC3)c(O)c2)cc1 [B6] | 0.6
O=C(CN1CCN(Cc2nc(-c3ccc(COc4ccc(Cl)cc4)cc3)no2)CC1)N/N=C/c1ccc(OCc2cccc(Cl)c2)cc1O [B12] | > 20
C=CCc1cccc(/C=N/NC(=O)CN2CCN(Cc3nc(-c4ccc(COc5cccc(Cl)c5)cc4)no3)CC2)c1O [A3] | 0.4
O=C(CN1CCN(Cc2nc(-c3ccc(COc4ccc(Cl)cc4)cc3)no2)CC1)N/N=C/c1ccc(OCc2ccccc2)cc1O [B1] | 1.26
O=C(CN1CCN(Cc2nc(-c3ccc(COc4ccccc4C(F)(F)F)cc3)no2)CC1)N/N=C/c1ccc(OCc2cccc(F)c2)cc1O [B11] | 1.93
O=C(CN1CCN(Cc2nc(-c3ccc(COc4ccc(F)c(F)c4)cc3)no2)CC1)N/N=C/c1ccc(OCc2ccccc2)cc1O [B7] | 0.34
